Values after ≈ are worked out from the molar mass of the structure shown. Where a SMILES comes first, the peptide text is derived from it. [ ]: non-standard residue; d: D form. Sar = CNCC(=O)O
Assays:
E. coli K12 [1] = assay type: cell-based, Escherichia coli; details: E. coli K12, Mueller-Hinton broth, 50,000 CFU/well, up to 64 μM peptide, 37 °C, 20 h, OD 600 nm; concentration giving >99% reduction in growth; mean and standard deviation of the mean
Experimental: Overnight cultures of E. coli K-12 grown in Mueller-Hinton broth were incubated at 50,000 CFU/well with up to 64 μM of peptide in 96-well plates (Corning, Ref 3598). Plates were then incubated at 37 °C for 20 h, after which the optical density (OD) was measured at 600 nm. Minimum inhibitory concentration (MIC) was determined as the peptide concentration resulting in >99% reduction in growth.

E. coli K12 [2] = assay type: cell-based, Escherichia coli; details: E. coli K12 in M9 minimal media, 30 μM DiOC2(3) 5 min, 20 μM CCCP or 8 μM peptide, 37 °C, up to 180 min, ex 450/em 510 nm; duplicate, three independent days
Experimental: Overnight cultures of E. coli K12 grown in Luria-Bertani (LB) broth were pelleted and resuspended to an OD600 of 0.4 in M9 minimal media. Cultures were grown at 37 °C for 30 min prior to being incubated with 10 mM EDTA for 5 min. Cultures were pelleted again and resuspended in fresh M9 minimal media to remove EDTA before the addition of 30 μM 3,3′-diethyloxacarbocynanine iodide (DiOC2 ([3]); Invitrogen). […] Fluorescence was measured immediately at 37 °C every 3 min for up to 3 h using a SpectraMax Gemini EM microplate reader set to 450 nm excitation and 510 nm emission wavelengths. Fluorescence curves were normalized to wells containing only dye and then plotted and analyzed using GraphPad Prism 9. Data at 15-min intervals are presented as mean and standard deviation of the mean for ease of visualization. Experiments were performed in duplicate and repeated on three independent days.

[3] = Tryptophan quenching assay with dibrominated lipid LUVs; assay type: physicochemical; details: 5 μM peptide or BSA, peptide-to-lipid ratio of 62.5, 0-30% brominated lipid, Stern-Volmer plot; mean of three independent analyses
Experimental: Large unilamellar vesicles (LUVs) were prepared using methods previously described ([14]). Briefly, 1-palmitoyl-2-oleoyl-sn-glycero-3-phosphoethanolamine (POPE) and 1-palmitoyl-2-oleoyl-sn-glycero-3-phospho-(1′-rac-glycerol) (POPG) (Avanti Polar Lipids) were combined in a 3:1 ratio, respectively, in chloroform and dried to a film before water washing and lyophilizing into a powder. This powder was resuspended in Tris-Cl buffer (10 mM Tris, 10 mM NaCl, pH 7), freeze-thawed 5× (dry ice – 50 °C water bath) and extruded through a mini-extruder fitted with a 0.2 μm Whatman Nuclepore polycarbonate membrane filter (Cytiva) at least 15× to form LUVs. Where applicable, 1-palmitoyl-2-(6,7-dibromo)stearoyl-sn-glycero-3-phosphocholine (PC-Br ([6], [7])) or 1-palmitoyl-2-(11,12-dibromo)stearoyl-sn-glycero-3-phosphocholine (PC-Br ([11], [12])) (Avanti Polar Lipids) were substituted for POPE at the given percentages and incorporated into LUVs as described.
Brominated lipid-containing LUVs (0%, 10%, 20%, and 30%) were combined with 5 μM peptide and tryptophan emission fluorescence was recorded from 300 to 400 nm using a 280 nm excitation wavelength. Fluorescence spectra were plotted and the area under the curve was used to generate a Stern-Volmer plot of initial fluorescence/quenched fluorescence (Fo/F) against percentage brominated lipid. […]

[4] = Circular dichroism, peptide secondary structure; assay type: physicochemical; details: 20 μM peptide, 10 mM Tris-Cl, 10 mM NaCl, pH 7, minima at 208 and 222 nm, average of three independent analyses
Experimental: Circular dichroism (CD) spectra of peptides were recorded between 190 and 250 nm on a Jasco J-1500 CD spectropolarimeter using a 0.1 cm pathlength quartz cuvette, scanning at […] with three accumulations. Peptide spectra were acquired in either water, 20% acetonitrile, 140 mM sodium dodecyl sulfate (SDS), or 3:1 POPE:POPG, in buffer (10 mM Tris-Cl, 10 mM NaCl, pH 7), at a constant peptide concentration of 20 μM and then plotted using GraphPad Prism 9. Data are presented from 200 to 250 nm for ease of visualization. Raw millidegree (mdeg) spectra were background subtracted and converted to mean residue ellipticity (MRE) using Equation 1 below, where c is the concentration in μM, l is the pathlength in cm, and n is the number of residues.(1) MRE=100(mdeg)/cln
Using the MRE value at 222 nm, the peptide helical percentage was estimated using Equation 2 below ([45], [46]), where MRE222 is the MRE value at 222 nm and n is the number of peptide bonds.(2) %Helix=100(MRE222/(−39,500(1−2.57/n)))

In the case of CC[C@H](C)[C@H](NC(=O)[C@H](C)NC(=O)[C@@H](NC(=O)[C@H](CC(C)C)NC(=O)[C@@H](NC(=O)[C@H](Cc1c[nH]c2ccccc12)NC(=O)CNC(=O)[C@H](C)NC(=O)[C@H](CCSC)NC(=O)[C@H](C)NC(=O)CNC(=O)[C@H](Cc1ccccc1)NC(=O)[C@@H](NC(=O)[C@H](CC(C)C)NC(=O)[C@H](CC(C)C)NC(=O)[C@@H](NC(=O)[C@@H]1CCCN1C(=O)[C@@H](NC(=O)CN(C)C(=O)CN(C)C(=O)CN(C)C(=O)[C@H](C)NC(C)=O)C(C)C)[C@@H](C)CC)[C@@H](C)CC)[C@@H](C)CC)[C@@H](C)CC)C(=O)N[C@H](C(=O)N[C@@H](C)C(=O)N[C@@H](CCCCN)C(=O)N[C@@H](CC(C)C)C(=O)N[C@@H](CCCCN)C(=O)N[C@@H](CCCCN)C(=O)N[C@@H](CCCCN)C(=O)N[C@@H](CCCCN)C(N)=O)[C@@H](C)CC [TM1-2] (Ac-A[Sar][Sar][Sar]VPILLIFGAMAGWILIAIIAKLKKKK-NH2), the MIC (E. coli K12 [1]) is reported as >64 µM and the “Dissipation of the proton motive force (DiOC2(3) RFU)” value (“Dissipation” for short) (E. coli K12 [2]) is reported as “re-establish the PMF back in the range of untreated cultures”.
For “carbonyl cyanide m-chlorophenylhydrazine [CCCP, reference compound]”, the “Dissipation” value (E. coli K12 [2]) was “immediate increase in RFU”.
With CC[C@H](C)[C@H](NC(=O)[C@H](C)NC(=O)[C@H](CCSC)NC(=O)[C@H](C)NC(=O)[C@@H](NC(=O)[C@H](Cc1ccccc1)NC(=O)CNC(=O)[C@H](CC(C)C)NC(=O)[C@H](CC(C)C)NC(=O)CNC(=O)[C@@H]1CCCN1C(=O)[C@@H](NC(=O)CN(C)C(=O)CN(C)C(=O)CN(C)C(=O)[C@H](C)NC(C)=O)C(C)C)[C@@H](C)CC)C(=O)N[C@@H](Cc1c[nH]c2ccccc12)C(=O)N[C@H](C(=O)N[C@@H](CC(C)C)C(=O)N[C@H](C(=O)N[C@@H](C)C(=O)N[C@H](C(=O)N[C@H](C(=O)N[C@@H](C)C(=O)N[C@@H](CCCCN)C(=O)N[C@@H](CC(C)C)C(=O)N[C@@H](CCCCN)C(=O)N[C@@H](CCCCN)C(=O)N[C@@H](CCCCN)C(=O)N[C@@H](CCCCN)C(N)=O)[C@@H](C)CC)[C@@H](C)CC)[C@@H](C)CC)[C@@H](C)CC [TM1-4] (Ac-A[Sar][Sar][Sar]VPGLLGFIAMAIWILIAIIAKLKKKK-NH2) the MIC (E. coli K12 [1]) was >64 µM, the “Tryptophan fluorescence quenching by PC-Br(11,12)-containing LUVs (depth of insertion)” value [3] was “penetrate deeper into the lipid bilayer” and the “Peptide secondary structure in the aqueous phase (CD)” value [4] was “strongest helix”.
In the case of CC[C@H](C)[C@H](NC(=O)[C@H](C)NC(=O)[C@H](CC(C)C)NC(=O)CNC(=O)CNC(=O)[C@H](C)NC(=O)[C@H](CC(C)C)NC(=O)[C@H](CCSC)NC(=O)[C@@H](NC(=O)[C@@H](NC(=O)[C@@H](NC(=O)[C@H](C)NC(=O)[C@@H](NC(=O)[C@@H](NC(=O)[C@H](Cc1c[nH]c2ccccc12)NC(=O)[C@H](C)NC(=O)[C@H](Cc1ccccc1)NC(=O)[C@@H](NC(=O)[C@@H]1CCCN1C(=O)CN(C)C(=O)CN(C)C(=O)CN(C)C(=O)[C@H](C)NC(C)=O)[C@@H](C)CC)C(C)C)[C@@H](C)CC)[C@@H](C)CC)[C@@H](C)CC)[C@@H](C)CC)C(=O)N[C@@H](CC(C)C)C(=O)N[C@@H](CCCCN)C(=O)N[C@@H](CC(C)C)C(=O)N[C@@H](CCCCN)C(=O)N[C@@H](CCCCN)C(=O)N[C@@H](CCCCN)C(=O)N[C@@H](CCCCN)C(N)=O [TM1-1] (Ac-A[Sar][Sar][Sar]PIFAWVIAIIIMLAGGLAILKLKKKK-NH2), the MIC (E. coli K12 [1]) is reported as >64 µM and the “Dissipation” value (E. coli K12 [2]) is reported as “re-establish the PMF back in the range of untreated cultures”.
With CC[C@H](C)[C@H](NC(=O)CN)C(=O)NCC(=O)N[C@@H](C)C(=O)N[C@H](C(=O)N[C@@H](CC(C)C)C(=O)N[C@@H](CCCCN)C(=O)N[C@H](C(=O)N[C@@H](CC(C)C)C(=O)N[C@H](C(=O)N[C@H](C(=O)NCC(=O)N[C@@H](CC(C)C)C(=O)N1CCC[C@H]1C(=O)N[C@@H](C)C(=O)N[C@@H](CC(C)C)C(=O)N[C@H](C(=O)N[C@@H](CO)C(=O)N[C@@H](Cc1c[nH]c2ccccc12)C(=O)N[C@H](C(=O)N[C@@H](CCCCN)C(=O)N[C@@H](CCCNC(=N)N)C(=O)N[C@@H](CCCCN)C(=O)N[C@@H](CCCNC(=N)N)C(=O)N[C@@H](CCC(N)=O)C(=O)N[C@@H](CCC(N)=O)C(N)=O)[C@@H](C)CC)[C@@H](C)CC)[C@@H](C)O)[C@@H](C)O)C(C)C)C(C)C [Melittin, reference compound] the MIC (E. coli K12 [1]) was 5 ± 2 µM (≈ 14.2 µg/mL).
For CC[C@H](C)[C@H](NC(=O)CNC(=O)[C@H](CC(C)C)NC(=O)[C@H](Cc1c[nH]c2ccccc12)NC(=O)[C@H](C)NC(=O)[C@@H](NC(=O)[C@@H](NC(=O)[C@H](CCSC)NC(=O)[C@@H](NC(=O)[C@H](C)NC(=O)[C@H](Cc1ccccc1)NC(=O)[C@H](C)NC(=O)[C@H](CC(C)C)NC(=O)[C@H](CC(C)C)NC(=O)CNC(=O)[C@@H]1CCCN1C(=O)[C@@H](NC(=O)CN(C)C(=O)CN(C)C(=O)CN(C)C(=O)[C@H](C)NC(C)=O)C(C)C)[C@@H](C)CC)[C@@H](C)CC)[C@@H](C)CC)C(=O)N[C@@H](C)C(=O)N[C@H](C(=O)N[C@H](C(=O)N[C@@H](CCCCN)C(=O)N[C@@H](CC(C)C)C(=O)N[C@@H](CCCCN)C(=O)N[C@@H](CCCCN)C(=O)N[C@@H](CCCCN)C(=O)N[C@@H](CCCCN)C(N)=O)[C@@H](C)CC)[C@@H](C)CC [TM1-3] (Ac-A[Sar][Sar][Sar]VPGLLAFAIMIIAWLGIAIIKLKKKK-NH2), the MIC (E. coli K12 [1]) was >64 µM and the “Tryptophan fluorescence quenching by PC-Br(11,12)-containing LUVs (depth of insertion)” value [3] was “penetrate deeper into the lipid bilayer”.
